ChEMBL document CHEMBL1146491, “Seco[D-Asp3]microcystin-RR and [D-Asp3,D-Glu(OMe)6]microcystin-RR, two new microcystins from a toxic water bloom of the cyanobacterium planktothrixrubescens” (J Nat Prod, 2004)

Test: Inhibition of recombinant PP1

SMILES | IC30
CNC(=O)CC[C@@H](NC(=O)[C@@H](C)[C@H](/C=C/C(C)=C/[C@H](C)[C@H](Cc1ccccc1)OC)NC(=O)[C@H](CCCNC(=N)N)NC(=O)C[C@@H](NC(=O)[C@H](CCCNC(=N)N)NC(=O)[C@@H](C)NC(=O)C(C)=O)C(=O)O)C(=O)O | 0.8 µM
C=C1C(=O)N[C@H](C)C(=O)N[C@@H](CCCNC(=N)N)C(=O)N[C@@H](C(=O)O)CC(=O)N[C@@H](CCCNC(=N)N)C(=O)N[C@@H](/C=C/C(C)=C/[C@H](C)[C@H](Cc2ccccc2)OC)[C@H](C)C(=O)N[C@@H](C(=O)O)CCC(=O)N1C | 7.8 µM
